From patent publication US20230398125A1, “TREATING HEPATITIS” (Albireo AB, priority 2022, published 2023)

Target: T1, Human NTCP (Homo sapiens, UniProt Q14973)
T1 construct: expressed in transfected cells; peptide purchased from Pharmaron
T1 sequence (Q14973 1-349): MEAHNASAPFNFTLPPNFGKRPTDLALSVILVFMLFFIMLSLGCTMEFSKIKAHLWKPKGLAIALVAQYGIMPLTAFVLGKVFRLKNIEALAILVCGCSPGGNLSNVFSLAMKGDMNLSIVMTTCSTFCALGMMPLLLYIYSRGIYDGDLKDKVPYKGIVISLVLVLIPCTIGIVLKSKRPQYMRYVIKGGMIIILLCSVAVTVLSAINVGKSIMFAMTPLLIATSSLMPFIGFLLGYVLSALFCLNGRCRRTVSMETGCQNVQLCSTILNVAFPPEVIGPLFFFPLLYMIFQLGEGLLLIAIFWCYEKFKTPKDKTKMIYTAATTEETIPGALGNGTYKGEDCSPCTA
Assay: [3H]preS1 peptide binding to NTCP-HEK293 cells
Method: Human embryonic kidney (HEK293) cells were stably transfected with human NTCP, C-terminally tagged with the FLAG epitope (here referred to as NTCP-HEK293 cells). Cells were maintained at 37° C., 5% CO2 and 95% humidity in DMEM/F-12 medium (Thermo Fisher Scientific, Waltham, Mass., USA) supplemented with 10% fetal calf serum (Sigma-Aldrich, St. Louis, Mo., USA), 4 mM L-glutamine, and penicillin/streptomycin. HepG2 cells stably transfected with NTCP-FLAG (here referred to as NTCP-HepG2) were cultured under the same conditions in DMEM with all supplements listed above, except for L-glutamine. […]
Bile acid transport measurements were performed in the NTCP-HEK293 cells with tritium-labelled taurocholic acid (here referred to as [^3H]TC) (20 Ci/mmol, 0.09 mCi/mL, Perkin Elmer, Waltham, USA). […] Cell-associated radioactivity of [^3H]TC or [^3H]preS1 was quantified by liquid scintillation counting in a Packard Microplate Scintillation Counter TopCount NXT (Packard Instrument Company, Meriden, USA). Transport rates and [^3H]preS1 binding were determined in counts per minute (cpm). The mean of the 0% control was subtracted and the net [^3H]TC transport rates and net [^3H]preS1 binding rates, respectively, were expressed as % of control. IC50 values were calculated from quadruplicate determinations by GraphPad Prism 6 (GraphPad, San Diego, Calif., USA). […]

With `CCCCC1CN(c2ccccc2)c2cc(SC)c(O/C=C(\F)C(=O)O)cc2S(=O)(=O)N1C` (stereo not shown) [Compound 1, (Z)-3-((3-butyl-2-methyl-7-(methylthio)-1,1-dioxido-5-phenyl-2,3,4,5-tetrahydro-1,2,5-benzothiadiazepin-8-yl)oxy)-2-fluoroacrylic acid] the IC50 was 149 nM.
